How the values were obtained:
Type in all cases: cell-based, human
[1] = system: colony-forming cells (CFC); test: Colony-forming cell (CFC) assay of CMA expanded CB cells; conditions: mean ± SEM of three independent experiments
Description: (§1) Colony-forming cell (CFC) were assayed by plating 5×10^2 cells per dish in semisolid media and were counted after 14 days as described (Araki et al., 2009, Id.). The number of cobble stone area-forming cell (CAFC) was quantitated in primary and expanded CD34+ cells by plating in limiting dilution onto irradiated M2-10B4 stromal cells as described (Araki et al., 2009, Id.; Conneally et al., 1997, Proc. Natl. Acad. Sci. USA. 94: 9836-9841; Taswell, 1981, J. Immunol. 126: 1614-1619).
(§2) In order to determine the a correlation between expansion of CD34^+CD90^+ cells and their functional potential as pluripotent hematopoietic stem cells, in vitro functional assays were performed, including assessment of colony-forming cells (CFC), a short-term assay, and cobblestone-area forming cells (CAFC), a long-term assay.

[2] = system: cobblestone area-forming cells (CAFC); test: Cobblestone area-forming cell (CAFC) assay, limiting dilution on M2-10B4 stromal cells; conditions: limiting dilution; mean ± SEM of three independent experiments
Description: as §1, §2

[3] = system: cord blood-derived CD34+CD90+ cells; test: Ex vivo expansion culture of cord blood CD34+ cells with chromatin modifying agents, flow cytometry for CD34/CD90; conditions: for cells co-expressing CD34+ and CD90+ / fold expansion of CD34+CD90+ cells / expansion of CD34+CD90+ cells (in words): 9 days of culture; for cells co-expressing CD34+ and CD90+: cytokines (SCF, Flt3-ligand, TPO, IL-3) plus CMA, FIG. 1A; for fold expansion of CD34+CD90+ cells: cytokines plus CMA; for fold expansion of CD34+CD90+ cells / expansion of CD34+CD90+ cells (in words): FIG. 1B; for CD34+CD90+ (%): mean ± SEM of three independent experiments
Source text: Freshly collected human CB was obtained from the New York Blood Center (New York, N.Y.) according to Institutional Review Board guidelines. Low density CB cells (<1.077 g/ml) were obtained by density centrifugation on Ficoll-Paque PLUS (GE Healthcare Bio-Sciences AB, Uppsala, Sweden), from which CD34^+ cells were immunomagnetically isolated by the MACS CD34 progenitor isolation kit (Miltenyi Biotech, Inc., Auburn, Calif.) as described in Araki et al., 2009, Exp Hematol. 37: 1084-1095). The purity of isolated CD34^+ cells routinely ranged from 90-99%.
CD34^+ cell expansion culture with or without CMA was carried out as described (Araki et al., 2009, Id.; Araki et al. 2006, Exp Hematol. 34: 140-149; Araki et al, 2007, Blood 109: 3570-3578.). All other HDAC inhibitors including 1 mM VPA (Sigma), TSA (5 ng/mL), NA (5 mM) or 5 μM of Suberoylanilide hydroxamic acid (SAHA; BioVision, Inc. Mountain View, Calif.) was added twice at 0 hr and after changing media at 48 hrs of culture. HDAC inhibitors were added only once (48 hr) when used in combination with a DNMT inhibitor as described (Araki et al., 2009, Id.; Araki et al., 2006, Id.; Himburg et al., 2010, Nat. Med. 16: 475-482).
Flow cytometric analysis was carried out as described (Araki et al., 2009, Id.; Araki et al. 2006, Id.; Araki et al, 2007, Id.). All antibodies were purchased from BD Bioscience (San Jose, Calif.). All analyses were paired with the corresponding matched isotype control and at least 10,000 live cells were acquired for each analysis (CellQuest software, Becton Dickinson).
In order to compare the effects of various chromatin modifying agents (CMAs) on the degree of expansion of cord blood-derived, primitive subpopulation of CD34^+ cells, valproic acid (VPA), trichostatin A (TSA), nicotinic acid (NA), suberoylanilide hydroxamic acid (SAHA) or 5-aza-2′-deoxycytidine (5azaD) as single agents or in combination was tested in vitro. The results of fluorescence-activated cell sorting experiments performed on cord blood-derived CD34^+/CD90^+ cells treated with CMA agents is shown in FIG. 1A.

Row | SMILES | CFC PE (%) (Colony Forming Cell Plating Efficiency) [1] | CAFC Frequency/10^4 cells [2] | cells co-expressing CD34+ and CD90+ [3] | fold expansion of CD34+CD90+ cells [3] | CD34+CD90+ (%) [3] | expansion of CD34+CD90+ cells (in words) [3]
1 | Nc1ncn([C@H]2C[C@H](O)[C@@H](CO)O2)c(=O)n1 [5azaD, 5-aza-2′-deoxycytidine] | 8.70 ± 1.37% | 21.73 ± 14.57 /10^4 cells | 2% | 1.2±0.5 fold | 2.33 ± 0.60% | –
2 | O=C(O)c1cccnc1 [NA, nicotinic acid] | – | – | 6% | 2.1 fold | – | did not promote the expansion
3 | O=C(CCCCCCC(=O)Nc1ccccc1)NO [SAHA, suberoylanilide hydroxamic acid] | – | – | 3% | 1.2 fold | – | did not promote the expansion
4 | CC(/C=C/C(=O)NO)=C\[C@@H](C)C(=O)c1ccc(N(C)C)cc1 [TSA, trichostatin A] | 4.97 ± 0.39% | 6.39 ± 4.81 /10^4 cells | 5% | 7.8±3.5 fold | 5.60 ± 0.29^¤ % | –

Reference: patent US20130136722A1, “Methods of Ex Vivo Expansion of Blood Progenitor Cells, and Generation of Composite Grafts” (The Board of Trustees of The University of Illinois, priority 2011, published 2013)
